Patent US10828317B2, “Method of treating bacterial infections” (priority 2016, dated 2020)
In brackets after ≈: the same amount, converted by molar mass. Several values for one entry are separate records, joined by “and”; a condition that tells them apart may be missing. Equal entries are not always repeated. Where two headings read alike, the source gives them in different places.

Columns and labels:
S. flexneri APV00906 = experiment: microbe, parasite or virus in culture; format: cell-based; details: for Antibiogram category (resistance pattern): letter before the MIC
Source text: (§1) Inhibition of Heliobacter is important in view of increasing resistance and its association to gastric cancer.

S. flexneri APV00907 = experiment: MIC and antibiogram; format: cell-based; details: for Antibiogram category (resistance pattern): letter before the MIC
Source text: as §1

S. sonnei APV00908 = experiment: MIC and antibiogram; format: cell-based; details: for Antibiogram category (resistance pattern): letter before the MIC
K. pneumoniae EN0262 = details: commercial antibiotics; data provided by IMBIM, BMC, Uppsala University; cited from earlier work
S. marescens EN0454 = experiment: MIC; format: cell-based, Serratia marescens; details: Serratia, EN0454, Combination 2 AZT+trimethoprim+uridine+thymidine, Table 16; read-out: MIC
M. luteus EN0455 = experiment: MIC; format: cell-based, Micrococcus luteus; details: Micrococcus luteus, EN0455, Combination 2 AZT+trimethoprim+uridine+thymidine, Table 16; read-out: MIC
P. mirabilis EN0457 = experiment: MIC; format: cell-based, Proteus mirabilis; details: Proteus mirabilis, EN0457, Combination 2 AZT+trimethoprim+uridine+thymidine, Table 16; read-out: MIC
P. aeruginosa EN0459 = experiment: MIC; format: cell-based, Pseudomonas aeruginosa; details: Pseudomonas aeruginosa, read-out: MIC
P. aeruginosa EN0460 = experiment: MIC; format: cell-based, Pseudomonas aeruginosa; details: Pseudomonas aeruginosa, read-out: MIC
Citrobacter sp. EN0465 = experiment: MIC; format: cell-based; details: Citrobacter, read-out: MIC
[1] = system: A. pittii or A. nosocomialis EN0180; experiment: MIC; format: cell-based, Acinetobacter pittii or nosocomialis; details: read-out: MIC
P. aeruginosa EN0422 = experiment: MIC; format: cell-based, Pseudomonas aeruginosa; details: Pseudomonas aeruginosa, read-out: MIC
P. mirabilis ST19 EN0445 = experiment: MIC; format: cell-based, Proteus mirabilis; details: Proteus mirabilis, read-out: MIC
E. coli EN002 = experiment: MIC, DtoIC; format: cell-based, Escherichia coli; details: Escherichia coli, read-out: MIC
P. aeruginosa EN004 = experiment: MIC, WT (EN004 = EN0004); format: cell-based, Pseudomonas aeruginosa
A. baumannii EN007 = experiment: MIC, WT (EN007 = EN0007); format: cell-based, Acinetobacter baumannii
S. aureus EN008 = experiment: MIC, Gram-positive control; format: cell-based, Staphylococcus aureus; details: Staphylococcus aureus, EN008, Combination 2 AZT+trimethoprim+uridine+thymidine, Table 16; read-out: MIC
P. aeruginosa EN014 = experiment: MIC, WT; format: cell-based, Pseudomonas aeruginosa; details: Pseudomonas aeruginosa, read-out: MIC
A. baumannii EN016 = experiment: MIC, WT; format: cell-based, Acinetobacter baumannii; details: Acinetobacter baumannii, read-out: MIC
E. coli = experiment: Murine peritonitis model; format: in vivo, mice; set-up: score at sampling: scale not given here; details: for CFU/ml PF / log CFU/ml PF / score at sampling: per mouse
S. aureus strain no 13 = experiment: MIC vs S. aureus LMG 15975, MRSA; details: for MIC: Staphylococcus aureus; for MIC BrdUrd: 2 μg/ml of trimethoprim
E. coli strain no 2 = experiment: MIC vs E. coli LMG 15862, penicillin resistant; details: Escherichia coli, Uridine 0 μg/ml
[2] = combination AZT+trimethoprim+uridine, Table 17B

NCC[C@H](O)C(=O)N[C@@H]1C[C@H](N)[C@@H](O[C@H]2O[C@H](CN)[C@@H](O)[C@H](O)[C@H]2O)[C@H](O)[C@H]1O[C@H]1O[C@H](CO)[C@@H](O)[C@H](N)[C@H]1O [AMK, amikacin]
Antibiogram category (resistance pattern) (S. flexneri APV00906): R*
Antibiogram category (resistance pattern) (S. flexneri APV00907): R*
Antibiogram category (resistance pattern) (S. sonnei APV00908): R*
MIC (K. pneumoniae EN0262): 8 µg/mL (≈ 13.7 µM)

C[C@H]1[C@H](NC(=O)/C(=N\OC(C)(C)C(=O)O)c2csc(N)n2)C(=O)N1S(=O)(=O)O [ATM, aztreonam]
MIC (K. pneumoniae EN0262): >16 µg/mL

Cc1cn([C@H]2C[C@H](N=[N+]=[N-])[C@@H](CO)O2)c(=O)[nH]c1=O [AZT, 3′-azido-3′-deoxythymidine]
MIC (S. marescens EN0454): > 4 µg/mL
MIC (M. luteus EN0455): > 4 µg/mL
MIC (P. mirabilis EN0457): > 4 µg/mL
MIC (P. aeruginosa EN0459; EN0459, Combination 1 AZT+trimethoprim+uridine, Table 16): > 4 µg/mL
MIC (P. aeruginosa EN0459; EN0459, Combination 2 AZT+trimethoprim+uridine+thymidine, Table 16): > 4 µg/mL
MIC (P. aeruginosa EN0459; EN0459, combination AZT+trimethoprim+uridine, Table 6): > 4 µg/mL
MIC (P. aeruginosa EN0460; EN0460, Combination 1 AZT+trimethoprim+uridine, Table 16): > 4 µg/mL
MIC (P. aeruginosa EN0460; EN0460, Combination 2 AZT+trimethoprim+uridine+thymidine, Table 16): > 4 µg/mL
MIC (P. aeruginosa EN0460; EN0460, combination AZT+trimethoprim+uridine, Table 6): > 4 µg/mL
MIC (Citrobacter sp. EN0465; SP.EN0465, Combination 1 AZT+trimethoprim+uridine, Table 16): > 4 µg/mL
MIC (Citrobacter sp. EN0465; SP.EN0465, Combination 2 AZT+trimethoprim+uridine+thymidine, Table 16): > 4 µg/mL
MIC (Citrobacter sp. EN0465; SP.EN0465, combination AZT+trimethoprim+uridine, Table 6): > 4 µg/mL
MIC ([1]; Combination 1 AZT+trimethoprim+uridine, Table 16): > 4 µg/mL
MIC ([1]; Combination 2 AZT+trimethoprim+uridine+thymidine, Table 16): > 4 µg/mL
MIC ([1]; combination AZT+trimethoprim+uridine, Table 6): > 4 µg/mL
MIC (P. aeruginosa EN0422; EN0422, Combination 1 AZT+trimethoprim+uridine, Table 16): > 4 µg/mL
MIC (P. aeruginosa EN0422; EN0422, Combination 2 AZT+trimethoprim+uridine+thymidine, Table 16): > 4 µg/mL
MIC (P. aeruginosa EN0422; EN0422, combination AZT+trimethoprim+uridine, Table 6): > 4 µg/mL
MIC (P. mirabilis ST19 EN0445; ST19EN0445, Combination 2 AZT+trimethoprim+uridine+thymidine, Table 16): > 4 µg/mL
MIC (P. mirabilis ST19 EN0445; ST19EN0445, combination AZT+trimethoprim+uridine, Table 6): > 4 µg/mL
MIC (E. coli EN002; EN002, Combination 1 AZT+trimethoprim+uridine, Table 16): 0.016 µg/mL
MIC (E. coli EN002; EN002, combination AZT+trimethoprim+uridine, Table 6): 0.016 µg/mL
MIC (P. aeruginosa EN004; Pseudomonas aeruginosa, EN004, Combination 1 AZT+trimethoprim+uridine, Table 16, read-out: MIC): > 4 µg/mL
MIC (P. aeruginosa EN004; Pseudomonas aeruginosa, EN004, Combination 2 AZT+trimethoprim+uridine+thymidine, Table 16, read-out: MIC): > 4 µg/mL
MIC (P. aeruginosa EN004; Pseudomonas aeruginosa, EN004, combination AZT+trimethoprim+uridine, Table 6, read-out: MIC): > 4 µg/mL
MIC (P. aeruginosa EN004; [2]): >4 µg/mL
MIC (A. baumannii EN007; Acinetobacter baumannii, EN007, Combination 1 AZT+trimethoprim+uridine, Table 16, read-out: MIC): > 4 µg/mL
MIC (A. baumannii EN007; Acinetobacter baumannii, EN007, Combination 2 AZT+trimethoprim+uridine+thymidine, Table 16, read-out: MIC): > 4 µg/mL
MIC (A. baumannii EN007; Acinetobacter baumannii, EN007, combination AZT+trimethoprim+uridine, Table 6, read-out: MIC): > 4 µg/mL
MIC (A. baumannii EN007; [2]): >4 µg/mL
MIC (S. aureus EN008): > 4 µg/mL
MIC (P. aeruginosa EN014; EN014, Combination 1 AZT+trimethoprim+uridine, Table 16): > 4 µg/mL
MIC (P. aeruginosa EN014; EN014, Combination 2 AZT+trimethoprim+uridine+thymidine, Table 16): > 4 µg/mL
MIC (P. aeruginosa EN014; EN014, combination AZT+trimethoprim+uridine, Table 6): > 4 µg/mL
MIC (A. baumannii EN016; EN016, Combination 1 AZT+trimethoprim+uridine, Table 16): > 4 µg/mL
MIC (A. baumannii EN016; EN016, Combination 2 AZT+trimethoprim+uridine+thymidine, Table 16): > 4 µg/mL
MIC (A. baumannii EN016; EN016, combination AZT+trimethoprim+uridine, Table 6): > 4 µg/mL
CFU/ml PF (E. coli; AZT 30 mg/kg): 1.65E+04 CFU/ml and 4.25E+05 CFU/ml and 1.10E+07 CFU/ml and 6.75E+05 CFU/ml
log CFU/ml PF (E. coli; AZT 30 mg/kg): 4.22 log CFU/ml and 5.63 log CFU/ml and 7.04 log CFU/ml and 5.83 log CFU/ml
score at sampling (E. coli; AZT 30 mg/kg): 1
inhibition in mice infected with E. coli (in words) (E. coli; murine peritonitis model): slight inhibition
MIC (S. aureus strain no 13; NO13, read-out: MIC AZT, Iclaprim 0, Uridine 0 μg/ml): > 32 µg/mL
MIC (S. aureus strain no 13; NO13, read-out: MIC AZT, Iclaprim 0, Uridine 100 μg/ml): > 32 µg/mL
MIC (S. aureus strain no 13; NO13, read-out: MIC AZT, Iclaprim 0, Uridine 300 μg/ml): > 32 µg/mL
MIC (S. aureus strain no 13; NO13, read-out: MIC AZT, Iclaprim 0, Uridine 500 μg/ml): > 32 µg/mL
MIC (S. aureus strain no 13; NO13, read-out: MIC AZT, Iclaprim 0.03, Uridine 300 μg/ml): ≤ 0.008 µg/mL
MIC (S. aureus strain no 13; NO13, read-out: MIC AZT, Iclaprim 0.03, Uridine 500 μg/ml): ≤ 0.008 µg/mL
MIC (E. coli strain no 2; NO2, read-out: MIC AZT, Iclaprim 0.1): > 8 µg/mL
MIC (E. coli strain no 2; NO2, read-out: MIC AZT, Iclaprim 0.2): > 8 µg/mL

O=c1[nH]c(=O)n([C@H]2C[C@H](O)[C@@H](CO)O2)cc1Br [BrdUrd]
MIC BrdUrd (S. aureus strain no 13; uridine 10 μg/ml): ≤2 µg/mL
MIC BrdUrd (S. aureus strain no 13; uridine 100 μg/ml): ≤2 µg/mL

CC(C)(O/N=C(\C(=O)N[C@@H]1C(=O)N2C(C(=O)[O-])=C(C[n+]3ccccc3)CS[C@H]12)c1csc(N)n1)C(=O)O [CAZ, ceftazidime]
Antibiogram category (resistance pattern) (S. flexneri APV00906): |
MIC (K. pneumoniae EN0262): >32 µg/mL

CO/N=C(\C(=O)N[C@@H]1C(=O)N2C(C(=O)O)=C(COC(C)=O)CS[C@H]12)c1csc(N)n1 [CTX, cefotaxime]
MIC (K. pneumoniae EN0262): >32 µg/mL

O=C(O)c1cn(C2CC2)c2cc(N3CCNCC3)c(F)cc2c1=O [Ciprofloxacin, ciprofloxacin]
CFU/ml PF (E. coli; Ciprofloxacin 14 mg/kg): 1.75E+03 CFU/ml and 2.50E+02 CFU/ml and 1.00E+03 CFU/ml (2×)
log CFU/ml PF (E. coli; Ciprofloxacin 14 mg/kg): 3.24 log CFU/ml and 2.40 log CFU/ml and 3.00 log CFU/ml (2×)
score at sampling (E. coli; Ciprofloxacin 14 mg/kg): 0
MIC (K. pneumoniae EN0262): >2 µg/mL

CO/N=C(\C(=O)N[C@@H]1C(=O)N2C(C(=O)[O-])=C(C[N+]3(C)CCCC3)CS[C@H]12)c1csc(N)n1 [FEP, cefepime]
MIC (K. pneumoniae EN0262): >16 µg/mL

COc1cc(Cc2cnc(N)nc2N)c2c(c1OC)OC(C1CC1)C=C2 (centres unmarked) [Iclaprim, iclaprim]
MIC (S. aureus strain no 13; NO13, read-out: MIC Iclaprim, Uridine 0 μg/ml): > 16 µg/mL
MIC (S. aureus strain no 13; NO13, read-out: MIC Iclaprim, Uridine 100 μg/ml): > 16 µg/mL

C[C@@H](O)[C@H]1C(=O)N2C(C(=O)O)=C(S[C@@H]3CN[C@H](C(=O)N(C)C)C3)[C@H](C)[C@H]12 [MEM, meropenem]
MIC (K. pneumoniae EN0262): >8 µg/mL

CN(C)c1cc(NC(=O)CNC(C)(C)C)c(O)c2c1C[C@H]1C[C@H]3[C@H](N(C)C)C(O)=C(C(N)=O)C(=O)[C@@]3(O)C(O)=C1C2=O [TGC, tigecycline]
MIC (K. pneumoniae EN0262): 2 µg/mL (≈ 3.41 µM)

amoxicillin-clavulanic acid [AMC]
Antibiogram MIC (S. flexneri APV00906): 4 µg/mL
Antibiogram MIC (S. flexneri APV00907): 16 µg/mL
Antibiogram category (resistance pattern) (S. flexneri APV00907): |
Antibiogram MIC (S. sonnei APV00908): ≤ 2 µg/mL
MIC (K. pneumoniae EN0262): >64 µg/mL

colistin [CST]
MIC (K. pneumoniae EN0262): 1 µg/mL

gentamicin
Antibiogram MIC (S. flexneri APV00906): 4 µg/mL
Antibiogram category (resistance pattern) (S. flexneri APV00906): R*
Antibiogram MIC (S. flexneri APV00907): ≤ 1 µg/mL
Antibiogram category (resistance pattern) (S. flexneri APV00907): R*
Antibiogram MIC (S. sonnei APV00908): ≤ 1 µg/mL
Antibiogram category (resistance pattern) (S. sonnei APV00908): R*
MIC (K. pneumoniae EN0262): 1 µg/mL

piperacillin-tazobactam [TZP]
Antibiogram MIC (S. flexneri APV00906): ≤ 4 µg/mL
Antibiogram MIC (S. flexneri APV00907): ≤ 4 µg/mL
Antibiogram MIC (S. sonnei APV00908): ≤ 4 µg/mL
MIC (K. pneumoniae EN0262): 64 µg/mL

trimethoprim-sulfamethoxazole [SXT]
Antibiogram MIC (S. flexneri APV00906): ≥ 320 µg/mL
Antibiogram MIC (S. flexneri APV00907): ≥ 320 µg/mL
Antibiogram MIC (S. sonnei APV00908): ≥ 160 µg/mL
MIC (K. pneumoniae EN0262): 4 µg/mL
